According to the NIST ThermoML archive (doi:10.1021/acs.jced.8b01044):
Numbers after ± are expanded uncertainties.

Columns and labels:
[1] = Crystal; DSC
[2] = Molar enthalpy of transition or fusion; conditions: Crystal; DSC

Compound	Triple point temperature [1]	Molar enthalpy of transition or fusion [2]
CCCCCCCCCCCC(=O)O [dodecanoic acid]	317.71 ± 0.93 K	8.54 ± 0.598 kcal/mol
CCCCCCCCCCCCCCCC(=O)O [hexadecanoic acid]	336.13 ± 0.93 K	12.1 ± 0.765 kcal/mol
CCCCCCCCCCCCCCCCCC(=O)O [octadecanoic acid]	344.08 ± 0.93 K	14.5 ± 0.86 kcal/mol
